Results reported in article PMC11066006, “Discovery of active mouse, plant and fungal cytochrome P450s in endogenous proteomes and upon expression in planta” (Scientific Reports, 2024).

Assays:
Format in all cases: biochemical
ZmCYP81A9-GFP [1] = biological target: T1, ZmCYP81A9-GFP (Zea mays, UniProt A0A804P7U7); assay: activity-based labeling, click chemistry, in-gel fluorescence; details: 10 μM probe, 1 mM NADPH, 1.5 h, leaf microsomes; covalent
T1 construct: C-terminal GFP fusion, codon-optimised, agroinfiltrated Nicotiana benthamiana leaf microsomes
T1 sequence (A0A804P7U7 with tags, fused parts or gaps): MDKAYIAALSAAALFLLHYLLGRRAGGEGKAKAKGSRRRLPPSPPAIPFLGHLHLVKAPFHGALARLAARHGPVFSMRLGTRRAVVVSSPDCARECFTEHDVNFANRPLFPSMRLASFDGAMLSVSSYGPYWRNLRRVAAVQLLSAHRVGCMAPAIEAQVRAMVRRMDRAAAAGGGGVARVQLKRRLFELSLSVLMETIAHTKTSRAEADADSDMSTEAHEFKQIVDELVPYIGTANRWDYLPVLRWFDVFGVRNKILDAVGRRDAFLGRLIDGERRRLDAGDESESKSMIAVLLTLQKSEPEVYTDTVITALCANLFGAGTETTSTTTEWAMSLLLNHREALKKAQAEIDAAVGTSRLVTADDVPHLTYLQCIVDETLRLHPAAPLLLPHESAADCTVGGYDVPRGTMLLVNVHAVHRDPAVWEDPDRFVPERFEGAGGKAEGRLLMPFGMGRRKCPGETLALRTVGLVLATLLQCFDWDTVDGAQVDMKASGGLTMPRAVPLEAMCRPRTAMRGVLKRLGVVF

MmCyp1a2-GFP = biological target: T2, MmCyp1a2-GFP (Mus musculus, UniProt P00186); assay: as above; details: 10 μM probe, 1 mM NADPH, 1.5 h, leaf microsomes; covalent
T2 construct: gene Cyp1a2; C-terminal GFP fusion, 82 kDa, codon-optimised, agroinfiltrated Nicotiana benthamiana leaf microsomes
T2 sequence (P00186 2-513): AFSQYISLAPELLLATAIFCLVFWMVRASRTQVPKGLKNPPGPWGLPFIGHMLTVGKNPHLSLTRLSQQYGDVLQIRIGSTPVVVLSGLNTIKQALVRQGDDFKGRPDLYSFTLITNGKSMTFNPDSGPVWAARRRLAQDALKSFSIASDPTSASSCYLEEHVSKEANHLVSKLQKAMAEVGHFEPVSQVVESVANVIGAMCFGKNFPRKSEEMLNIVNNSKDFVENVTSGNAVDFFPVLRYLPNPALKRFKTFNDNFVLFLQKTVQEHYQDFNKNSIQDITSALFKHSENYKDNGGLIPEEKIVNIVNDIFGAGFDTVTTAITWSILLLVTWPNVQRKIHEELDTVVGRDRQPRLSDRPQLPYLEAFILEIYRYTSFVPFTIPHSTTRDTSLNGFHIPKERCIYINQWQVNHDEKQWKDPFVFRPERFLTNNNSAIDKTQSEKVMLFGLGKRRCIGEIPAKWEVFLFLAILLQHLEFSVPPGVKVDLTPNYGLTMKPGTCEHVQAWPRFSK

ZmCYP81A9-GFP [2] = biological target: T1, ZmCYP81A9-GFP; assay: activity-based labeling, streptavidin pull-down LC-MS/MS; details: 10 μM probe, 1 mM NADPH, 1.5 h, leaf microsomes; covalent
ZtCYP539A6 = biological target: T3, ZtCYP539A6 (Zymoseptoria tritici, UniProt F9XDL6); assay: as above; details: 30 μM probe, 1 mM NADPH, 1 h, native Z. tritici microsomes; covalent
T3 construct: gene CYP-30; native, microsomes of Z. tritici cell cultures, identified by MS; also expressed as C-terminal GFP fusion in N. benthamiana
T3 sequence (F9XDL6 1-542): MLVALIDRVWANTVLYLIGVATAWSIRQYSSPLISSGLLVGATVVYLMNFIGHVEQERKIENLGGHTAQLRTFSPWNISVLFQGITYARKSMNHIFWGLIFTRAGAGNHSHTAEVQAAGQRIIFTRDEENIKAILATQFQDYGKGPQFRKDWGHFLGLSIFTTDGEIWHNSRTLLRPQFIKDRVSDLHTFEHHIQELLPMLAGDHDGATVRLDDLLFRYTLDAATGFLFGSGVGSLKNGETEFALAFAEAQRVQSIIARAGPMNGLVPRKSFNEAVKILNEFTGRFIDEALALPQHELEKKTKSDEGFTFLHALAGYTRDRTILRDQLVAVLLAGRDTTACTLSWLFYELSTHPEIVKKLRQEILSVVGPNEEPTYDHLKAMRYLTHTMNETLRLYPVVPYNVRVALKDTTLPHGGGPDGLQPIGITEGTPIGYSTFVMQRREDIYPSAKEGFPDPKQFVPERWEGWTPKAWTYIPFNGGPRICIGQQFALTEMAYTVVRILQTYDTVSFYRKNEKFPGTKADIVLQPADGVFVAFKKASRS

ZtCYP52R1 = biological target: T4, ZtCYP52R1 (Zymoseptoria tritici, UniProt F9XML6); assay: as above; details: 30 μM probe, 1 mM NADPH, 1 h, native Z. tritici microsomes; covalent
T4 construct: gene CYP-29; native, microsomes of Z. tritici cell cultures, identified by MS; also expressed as C-terminal GFP fusion in N. benthamiana
T4 sequence (F9XML6 1-521): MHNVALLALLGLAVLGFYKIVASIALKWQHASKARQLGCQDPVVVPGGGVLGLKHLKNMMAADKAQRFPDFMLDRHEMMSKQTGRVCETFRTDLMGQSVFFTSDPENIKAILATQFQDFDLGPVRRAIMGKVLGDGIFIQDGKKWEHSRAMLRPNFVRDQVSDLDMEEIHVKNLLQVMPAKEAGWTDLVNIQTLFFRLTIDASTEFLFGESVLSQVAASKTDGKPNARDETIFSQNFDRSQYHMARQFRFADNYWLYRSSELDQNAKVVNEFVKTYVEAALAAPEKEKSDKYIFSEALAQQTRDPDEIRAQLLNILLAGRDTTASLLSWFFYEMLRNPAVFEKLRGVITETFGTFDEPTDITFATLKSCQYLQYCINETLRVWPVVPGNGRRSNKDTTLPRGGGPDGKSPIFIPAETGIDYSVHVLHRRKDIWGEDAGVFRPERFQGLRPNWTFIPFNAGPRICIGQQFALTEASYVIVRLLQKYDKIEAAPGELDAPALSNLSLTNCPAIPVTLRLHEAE

ZmCYP81A9-GFP [3] = biological target: T1, ZmCYP81A9-GFP; assay: activity-based labeling, in-gel fluorescence; streptavidin pull-down LC-MS/MS; details: 10 μM probe, 1 mM NADPH, 1.5 h, leaf microsomes; covalent
ZmCYP81A9 = biological target: T5, ZmCYP81A9 (Zea mays, UniProt A0A804P7U7); assay: hydroxylation monitored by LC-MS; details: yeast microsomes, 200 μM bentazone, 1 mM NADPH, pH 7.5, 28 °C, 2 h
T5 construct: untagged as described; codon-optimised ORF in pYES3, microsomes of Saccharomyces cerevisiae WAT11
T5 sequence (A0A804P7U7 with tags, fused parts or gaps): T1 sequence (A0A804P7U7 with tags, fused parts or gaps)

Compound: C#CCCCCNC(=O)c1cc2ccc(C#C)cc2oc1=O [DB086]
- activity-based labeling, click chemistry, in-gel fluorescence (ZmCYP81A9-GFP [1]): NADPH-dependent fluorescent signal for DB086 and DB096
- activity-based labeling, click chemistry, in-gel fluorescence (MmCyp1a2-GFP): tested these for labeling with DB086 and DB096

Compound: C#CCCCCNC(=O)C1=Cc2ccc(C#C)cc2CC1 [DB088]
- activity-based labeling, streptavidin pull-down LC-MS/MS (ZmCYP81A9-GFP [2]): confirming that ZmCYP81A9-GFP is labeled by both DB088 and DB096

Compound: C#CCCCCNC(=O)c1ccc(C#C)cc1 [DB096]
- activity-based labeling, click chemistry, in-gel fluorescence (MmCyp1a2-GFP): tested these for labeling with DB086 and DB096
- activity-based labeling, streptavidin pull-down LC-MS/MS (ZtCYP539A6): amongst the DB096-enriched proteins: ZtCYP52R1, ZtCYP539A6, ZtCYP5078B1 and ZtCYP5080H1
- activity-based labeling, streptavidin pull-down LC-MS/MS (ZtCYP52R1): amongst the DB096-enriched proteins: ZtCYP52R1, ZtCYP539A6, ZtCYP5078B1 and ZtCYP5080H1
- activity-based labeling, in-gel fluorescence; streptavidin pull-down LC-MS/MS (ZmCYP81A9-GFP [3]): NADPH-dependent fluorescent signal for DB086 and DB096

Compound: CC(C)N1C(=O)c2ccccc2NS1(=O)=O [bentazone]
- hydroxylation monitored by LC-MS (ZmCYP81A9): used to monitor the conversion of bentazone, leading to hydroxybentazone
